pIC50: −log10 of the molar value.
Legend:
[1] = system: BT478 and BT530 tumor cells; assay: Dose-response with exogenous guanine supplementation; assay type: cell-based, human; conditions: guanine 12 μM in culture media
From the text: Created with BioRender.com. […] Comparisons were made via a two-tailed unpaired t test, n = 4 technical replicates, p value is indicated. N.s., not significant, ∗∗∗∗ = p < 0.0001. […] Comparisons were made via a two-tailed unpaired t test, n = 4 technical replicates. N.s., not significant. […] Data are presented as mean ± SD from 4 technical replicates. (E) Immunoblot confirmation of IMPDH (IMPDH1 + IMPDH2) knockout (KO) in patient-derived lung-BMICs. Cropped from single full blot. (F) Time-course proliferation assays of AAVS1 and IMPDH KO BT478 and BT530 cells. Comparisons were made via a two-tailed unpaired t test. Data are presented as mean ± SD from 4 technical replicates, ∗∗∗∗ = p < 0.0001. (G) Representative bar graphs depicting the sphere count per 200 cells of AAVS1 vs. IMPDH KO cells. Comparisons were made via a two-tailed unpaired t test, data are presented as mean ± SD from 4 technical replicates, ∗∗∗∗ = p < 0.0001. (H) Kaplan-Meier curves showing the overall survival probability (from primary cancer diagnosis to death) in a cohort of 30 patients with lung carcinoma who developed BM, for IMPDH2 very high vs. very low expression (1st and 3rd quartiles cutoff values: <114.86 and >210.74). The Cox regression model for survival analysis was used, p values (p) are shown. […]

[2] = Brain homogenate binding, equilibrium dialysis; assay type: in vitro ADME, mouse; conditions: 2 μM, 4 h, 37°C
Method: The samples were applied to a dialysis well plate and sealed with dialysis membrane. Dialysis buffer (100 mM sodium phosphate pH 7.4, 150 mM NaCl) was applied to opposite side of the membrane (receiver well of the plate), and samples were incubated at 37°C with 5% CO2 for 4 h. Following completion of incubation period, samples were recovered from each side of the dialysis membrane and processed by protein precipitation, and analysis by LC-MS/MS for compound concentration. A corresponding set of samples was also prepared and stop solution (acetonitrile containing 200 ng/mL tolbutamide and 200 ng/mL labetalol) was immediately added, and samples were obtained from each side of the dialysis plate for mass spectrometric analysis.

[3] = system: de novo GTP synthesis pathway; assay: LC-MS metabolomics profiling; assay type: cell-based, human; conditions: IC80, 6 h; for GDP and GTP levels: BT478, BT530; for AICAR levels: b56: accumulates in only some conditions
Method: Metabolites were extracted with a solution of cold acetonitrile/methanol/water (2:2:1) from the cell pellets and protein precipitation was performed by three cycles of freeze/thawing and sonication. The LC-MS metabolomics analysis was performed as previously described.[75] Briefly, a UHPLC-MS system consisting of an Agilent 6550 qToF coupled to an Agilent 1290 binary pump UHPLC system was used. The source parameters were as follows: Gas temperature, 150 °C at 14 L/min and 45 psig; Sheath gas temperature, 325 °C at 12 L/min; Capillary and nozzle voltages were set to −2.0 kV iFunnel conditions were changed from default to-30 V DC, High pressure funnel drop −100 V and RF voltage of 110 V, low pressure funnel drop −50 V and RF voltage of 60 V. Chromatographic separation was achieved by ion-paired chromatography. In brief, […] of each sample was injected onto Agilent ZORBAX Extend-C18 (150 mm 3 2.1 mm i.d.; 1.8 mm) column using tributylamine (TBA) as an ion paring agent (solvent A: 3% methanol, 97% water 10 mM TBA, 15 mM Acetic acid, solvent B: 100% methanol). The linear gradient employed was as follows: 0–2.5 min 99% A, 2.5–7.5 min decrease to 80% A, 7.5–13 min to 55% B and finally 13–15 min to 99% B and held for 1 min. The column was re-generated for 2 min at 1% B. The flow rate was set to […]. The column temperature was maintained at 25°C. Skyline was used for data processing of metabolites in our library of standards using known retention times and MS/MS spectra. Integrated peak areas for the metabolites was exported for further statistical and metabolite enrichment analysis by using online MetaboAnalyst (https://www.metaboanalyst.ca/).

[4] = system: MDR1; assay: Bi-directional permeability via MDR1-MDCKII cells; assay type: in vitro ADME; conditions: dog, MDCK-MDR1, pH 7.4; 2 μM (digoxin 10 μM), 2.5 h
Method: (§1) MDR1-MDCKII permeability assays were performed by Wuxi AppTec Co. Briefly, MDR1-MDCK1 cells were seeded onto polycarbonate membranes in 96-well insert system plates and allowed to develop into monolayers. […] The plate was incubated for 2.5 h (37°C, 5% CO2) and the media was sampled on either side and the compound present was quantified by LC-MS/MS and the concentrations were used to calculate the efflux ratio. Digoxin (10 μM), nadolol (2 μM), and metoprolol (2 μM) were used as controls.

[5] = system: MDR1-MDCKII cells; assay: Bi-directional permeability via MDR1-MDCKII cells; assay type: in vitro ADME
Method: as §1

[6] = system: lung-BMIC line (BT478); assay: Dose-response assay, PrestoBlue; assay type: cell-based, human; conditions: for pIC50: Homo sapiens, BT478, 72-h treatment, PrestoBlue, N/A, not applicable, read-out: Lung-BM IC50
Method: For preliminary drug screening, drugs were plated at a concentration of 10 μM in a 96-well plate, in triplicate at a density of 1000 cells/well, and incubated at 37°C with a humidified atmosphere of 5% CO2 for three days. Vehicle controls for cell death are used in each functional experiment. Following treatment, PrestoBlue (20 μL, Invitrogen), a resazurin-based cell viability reagent and fluorescence indicator of cell metabolism, was added to each well to estimate proliferation approximately 2 h prior to measuring fluorescence intensity via FLUOstar Omega Fluorescence 556 Microplate reader (BMG LABTECH) at an excitation and emission wavelength of 540 nm and 590 nm, respectively. Results were analyzed using Omega analysis software.
Dose-response assays were conducted using the same protocol apart from drugs being plated using 2-fold serial dilutions (20 μM - 39 nM) as previously described.[66] The half maximal inhibitory concentration (IC50) is determined by plotting percent cell viability by the logarithmic concentration of drug. IC80 concentrations will be used for subsequent functional assays (cell proliferation, sphere formation), as determined by the following formula: ICF=100−F/F^1/H×IC50 where F = fraction of maximal response and H = hill slope.

| SMILES | BMIC viability with exogenous guanine supplementation [1] | % Unbound [2] | GDP and GTP levels [3] | levels of dihydroorotic acid [3] | AICAR levels [3] | Papp A→B at 2.5 h, 2 μM [4] [×10⁻⁶ cm/s] | Papp B→A at 2.5 h, 2 μM [4] [×10⁻⁶ cm/s] | substrate for P-glycoprotein (ABCB1) ([5]; MDCK-MDR1 cell monolayer model) | pIC50 [6] | % Bound [2] | mass of compound following completion of the brain homogenate assay [2] | efflux ratio at 2.5 h, 2 μM [4] | Rank of Papp [5] | permeability for entering the brain ([5]; MDCK-MDR1 cell monolayer model) | selectivity for BMICs compared to normal brain cells ([6]; BT478, MDA-MB-231 Br, BT673 vs neural stem cells, 72 h) |
| --- | --- | --- | --- | --- | --- | --- | --- | --- | --- | --- | --- | --- | --- | --- | --- |
| COc1c(C)c2c(c(O)c1C/C=C(\C)CCC(=O)O)C(=O)OC2 [MPA, Mycophenolic acid] | rescued BMIC viability | 34.1% | significantly reduced | did not influence | accumulate | 26 | 10 | not significant substrates | 5.44 |  |  |  |  |  |  |
| COc1c(C)c2c(c(O)c1C/C=C(\C)CCC(=O)OCCN1CCCC1)C(=O)OC2 [Compound 3] | rescued BMIC viability | Not Recover ed | significantly reduced | did not influence | accumulate | 14.8 | 12.5 | not significant substrates | 4.82 | Not Recover ed | could not be detected | 0.848 | High | high permeability | retained MPA’s therapeutic window |

Source: PMC11513854, “De novo GTP synthesis is a metabolic vulnerability for the interception of brain metastases” (Cell Reports Medicine, 2024)
